Patent US11318134B2, “Benzamide compounds” (priority 2018, dated 2022)

Columns and labels:
Bcl-2 [1] = target: T1, Bcl-2 (Homo sapiens (Human), UniProt P10415); test: Bcl-2 protein family binding assay (Bcl2scan platform), Bcl-2; details: BIM peptide ligand, 11-point dilution, read-out: Bc1-2 Kd (nm)
Method: (§1) E. coli were grown to log-phase and infected with T7 phage from a frozen stock (multiplicity of infection=0.4) and incubated with shaking at 32° C. until lysis (90-150 minutes). The lysates were centrifuged (5,000×g) and filtered (0.2 μm) to remove cell debris. […] The liganded beads were blocked with excess biotin and washed with blocking buffer (SeaBlock (Pierce), 1% BSA, 0.05% Tween 20, 1 mM DTT) to remove unbound ligand and to reduce non-specific phage binding. […] Test compounds were prepared as 100× stocks in 100% DMSO. Kds were determined using an 11-point 3-fold compound dilution series with one DMSO control point. […] The compounds were then diluted directly into the assays such that the final concentration of DMSO was 0.9%. All reactions performed in polypropylene 384-well plates. Each was a final volume of 0.02 ml. […] The BCL2 concentration in the eluates was measured by qPCR. Binding constants (Kds) were calculated with a standard dose-response curve using the Hill equation:
(§2) [formula] The Hill Slope was set to −1. Curves were fitted using a non-linear least square fit with the Levenberg-Marquardt algorithm.

Bcl-XL [2] = target: T2, Bcl-XL (Homo sapiens (Human), UniProt Q07817); test: Bcl-2 protein family binding assay (Bcl2scan platform), Bcl-XL; details: BIM peptide ligand, 11-point dilution, read-out: Bc1-XL Kd (nm)
Method: as §1, §2

RS4;11 cells = test: RS4;11 cell proliferation assay (CellTiter-Glo); assay type: cell-based; details: Homo sapiens, RS4-11, 48 h, read-out: RS4;11 (nM), CTG IC50
Method: Cell proliferation was measured using the CellTiter-Glo® Luminescent Cell Viability Assay. The assay involved the addition of a single reagent (CellTiter-Glo® Reagent) directly to cells cultured in serum-supplemented medium.
Each compound evaluated was prepared as a DMSO stock solution (10 mM). Compounds were tested in duplicate on each plate, with a 10-point serial dilution curve (1:3 dilution). Compound treatment (1.0 μL) was added from the compound dilution plate to the cell plate. The highest compound concentration was 10 μM (final), with a 0.1% final DMSO concentration. Plates were then incubated at 37° C., 5% CO2. After 48 h of compound treatment for RS4;11 or 72 h for NCI-H1963, cell plates were equilibrated at rt for approximately 30 mins. An equi-volume amount of CellTiter-Glo® Reagent (40 μL) was added to each well. […] Luminescence was recorded using a Envision plate reader according to CellTiter-Glo protocol. IC50 of each compound was calculated using GraphPad Prism by nonlinear regression analysis.

Bcl-2 [3] = target: T1, Bcl-2; test: Bcl-2 HTRF assay (FAM-Bak peptide); assay type: binding; details: HTRF, 4 nM Bcl-2, 100 nM FAM-Bak peptide; read-out: Bc1-2 IC50
Bcl-XL [4] = target: T2, Bcl-XL; test: Bcl-XL HTRF assay (FAM-Bad peptide); assay type: binding; details: HTRF, 3 nM Bcl-XL, 40 nM FAM-Bad peptide; read-out: Bc1-XL IC50

T2 sequence (Q07817 whole entry): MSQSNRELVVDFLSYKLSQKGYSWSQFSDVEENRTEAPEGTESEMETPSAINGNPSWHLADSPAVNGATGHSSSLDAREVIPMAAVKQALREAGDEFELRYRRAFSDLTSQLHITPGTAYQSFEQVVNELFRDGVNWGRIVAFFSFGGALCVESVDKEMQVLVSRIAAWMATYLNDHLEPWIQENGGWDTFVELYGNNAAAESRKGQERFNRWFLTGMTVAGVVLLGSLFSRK
T1 sequence (P10415 whole entry): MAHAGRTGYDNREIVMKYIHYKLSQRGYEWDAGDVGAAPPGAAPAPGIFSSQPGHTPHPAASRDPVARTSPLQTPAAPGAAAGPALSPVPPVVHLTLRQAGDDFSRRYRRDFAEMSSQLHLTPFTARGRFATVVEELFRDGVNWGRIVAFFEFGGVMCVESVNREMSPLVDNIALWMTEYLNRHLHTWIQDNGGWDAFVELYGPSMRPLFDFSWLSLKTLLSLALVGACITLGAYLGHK

| SMILES | Kd (Bcl-2 [1]) [nM] | Kd (Bcl-XL [2]) [nM] | IC50 (RS4;11 cells) [nM] | IC50 (Bcl-2 [3]) [nM] | IC50 (Bcl-XL [4]) [nM] |
| --- | --- | --- | --- | --- | --- |
| CC1(C)CCC(CN2CCN(c3ccc(C(=O)NS(=O)(=O)c4ccc(NCC5(F)CCOCC5)c([N+](=O)[O-])c4)c(Oc4cnc5[nH]ccc5c4)c3)CC2)=C(C23CC(C(F)(F)F)(C2)C3)C1 [Example 30, 2-((1H-pyrrolo[2,3-b]pyridin-5-yl)oxy)-4-(4-((4,4-dimethyl-2-(3-(trifluoromethyl)bicyclo[1.1.1]pentan-1-yl)cyclohex-1l-en-1-yl)methyl)piperazin-1-yl)-N-((4-(((4-fluorotetrahydro-2H-pyran-4-yl)methyl)amino)-3-nitrophenyl)sulfonyl)benzamide] | < 10 | > 100 | < 100 | – | – |
| CC1(C)CCC(CN2CCN(c3ccc(C(=O)NS(=O)(=O)c4ccc(OCC5(F)CCOCC5)c([N+](=O)[O-])c4)c(Oc4cnc5[nH]ccc5c4)c3)CC2)=C(C23CC(C(F)(F)F)(C2)C3)C1 [Example 31, 2-((1H-pyrrolo[2,3-b]pyridin-5-yl)oxy)-4-(4-((4,4-dimethyl-2-(3-(trifluoromethyl)bicyclo[1.1.1]pentan-1-yl)cyclohex-1-en-1-yl)methyl)piperazin-1-yl)-N-((4-((4-fluorotetrahydro-2H-pyran-4-yl)methoxy)-3-nitrophenyl)sulfonyl)benzamide] | < 10 | > 100 | < 100 | – | – |
| CC1(C)CCC(CN2CCN(c3ccc(C(=O)NS(=O)(=O)c4ccc(NC[C@H]5CC[C@](C)(O)CC5)c([N+](=O)[O-])c4)c(Oc4cnc5[nH]ccc5c4)c3)CC2)=C(C23CC(C(F)(F)F)(C2)C3)C1 [Example 32, 2-((1H-pyrrolo[2,3-b]pyridin-5-yl)oxy)-4-(4-((4,4-dimethyl-2-(3-(trifluoromethyl)bicyclo[1.1.1]pentan-1-yl)cyclohex-1-en-1-yl)methyl)piperazin-1-yl)-N-((4-((((1r,4r)-4-hydroxy-4-methylcyclohexyl)methyl)amino)-3-nitrophenyl)sulfonyl)benzamide] | < 10 | > 100 | < 100 | – | – |
| CC1(C)CCC(CN2CCN(c3ccc(C(=O)NS(=O)(=O)c4ccc(NCC5CCOCC5)c([N+](=O)[O-])c4)c(Oc4cnc5[nH]ccc5c4)c3)CC2)=C(C23CC(C(F)F)(C2)C3)C1 [Example 33, 2-((1H-pyrrolo[2,3-b]pyridin-5-yl)oxy)-4-(4-((2-(3-(difluoromethyl)bicyclo[1.1.1]pentan-1-yl)-4,4-dimethylcyclohex-1-en-1-yl)methyl)piperazin-1-yl)-N-((3-nitro-4-(((tetrahydro-2H-pyran-4-yl)methyl)amino)phenyl)sulfonyl)benzamide] | < 10 | > 100 | < 100 | – | – |
| CC1(C)CCC(CN2CCN(c3ccc(C(=O)NS(=O)(=O)c4ccc(NCC5(F)CCOCC5)c([N+](=O)[O-])c4)c(Oc4cnc5[nH]ccc5c4)c3)CC2)=C(C23CC(C(F)F)(C2)C3)C1 [Example 35, 2-((1H-pyrrolo[2,3-b]pyridin-5-yl)oxy)-4-(4-((2-(3-(difluoromethyl)bicyclo[1.1.1]pentan-1-yl)-4,4-dimethylcyclohex-1-en-1-yl)methyl)piperazin-1-yl)-N-((4-(((4-fluorotetrahydro-2H-pyran-4-yl)methyl)amino)-3-nitrophenyl)sulfonyl)benzamide] | < 10 | > 100 | < 100 | – | – |
| CC1(C)CCC(CN2CCN(c3ccc(C(=O)NS(=O)(=O)c4ccc(OCC5(F)CCOCC5)c([N+](=O)[O-])c4)c(Oc4cnc5[nH]ccc5c4)c3)CC2)=C(C23CC(C(F)F)(C2)C3)C1 [Example 36, 2-((1H-pyrrolo[2,3-b]pyridin-5-yl)oxy)-4-(4-((2-(3-(difluoromethyl)bicyclo[1.1.1]pentan-1-yl)-4,4-dimethylcyclohex-1-en-1-yl)methyl)piperazin-1-yl)-N-((4-((4-fluorotetrahydro-2H-pyran-4-yl)methoxy)-3-nitrophenyl)sulfonyl)benzamide] | < 10 | 10 to 100 | < 100 | – | – |
| CN1CCC(F)(CNc2ccc(S(=O)(=O)NC(=O)c3ccc(N4CCN(CC5=C(C67CC(C(F)F)(C6)C7)CC(C)(C)CC5)CC4)cc3Oc3cnc4[nH]ccc4c3)cc2[N+](=O)[O-])CC1 [Example 38, 2-((1H-pyrrolo[2,3-b]pyridin-5-yl)oxy)-4-(4-((2-(3-(difluoromethyl)bicyclo[1.1.1]pentan-1-yl)-4,4-dimethylcyclohex-1-en-1-yl)methyl)piperazin-1-yl)-N-((4-(((4-fluoro-1-methylpiperidin-4-yl)methyl)amino)-3-nitrophenyl)sulfonyl)benzamide] | < 10 | 10 to 100 | < 100 | – | – |
| CC(C)C12CC(C3=C(CN4CCN(c5ccc(C(=O)NS(=O)(=O)c6ccc(NCC7CCOCC7)c([N+](=O)[O-])c6)c(Oc6cnc7[nH]ccc7c6)c5)CC4)CCC(C)(C)C3)(C1)C2 [Example 39, 2-((1H-pyrrolo[2,3-b]pyridin-5-yl)oxy)-4-(4-((2-(3-isopropylbicyclo[0.1.1]pentan-1-yl)-4,4-dimethylcyclohex-1-en-1-yl)methyl)piperazin-1-yl)-N-((3-nitro-4-(((tetrahydro-2H-pyran-4-yl)methyl)amino)phenyl)sulfonyl)benzamide] | 10 to 100 | > 100 | < 100 | – | – |
| CC1(C)CCC(CN2CCN(c3ccc(C(=O)NS(=O)(=O)c4ccc(NCC5CCOCC5)c([N+](=O)[O-])c4)c(Oc4cnc5[nH]ccc5c4)c3)CC2)=C(C23CC(C(C)(F)F)(C2)C3)C1 [Example 40, 2-(1H-pyrrolo[2,3-b]pyridin-5-yloxy)-4-(4-((2-(3-(1,1-difluoroethyl)bicyclo[1.1.1]pentan-1-yl)-4,4-dimethylcyclohex-1-enyl)methyl)piperazin-1-yl)-N-(3-nitro-4-((tetrahydro-2H-pyran-4-yl)methylamino)phenylsulfonyl)benzamide] | < 10 | > 100 | < 100 | – | – |
| CC1(C)CCC(C23CC(Cl)(C2)C3)=C(CN2CCN(c3ccc(C(=O)NS(=O)(=O)c4ccc(N[C@H](CCN5CCC(O)CC5)CSc5ccccc5)c(S(=O)(=O)C(F)(F)F)c4)cc3)CC2)C1 [Example 46] | – | – | 100 to 1000 | ≤ 10 | ≤ 10 |
| CC1(C)CCC(C23CC(C)(C2)C3)=C(CN2CCN(c3ccc(C(=O)NS(=O)(=O)c4ccc(N[C@H](CCN5CCOCC5)CSc5ccccc5)c(S(=O)(=O)C(F)(F)F)c4)cc3)CC2)C1 [Example 47, (R)-4-(4-((5,5-Dimethyl-2-(3-methylbicyclo[1.1.1]pentan-1-yl)cyclohex-1-enyl)methyl)piperazin-1-yl)-N-(4-(4-morpholino-1-(phenylthio)butan-2-ylamino)-3-(trifluoromethylsulfonyl)phenylsulfonyl)benzamide] | > 100 | 10 to 100 | > 1000 | – | – |
| CN(CCO)CC[C@H](CSc1ccccc1)Nc1ccc(S(=O)(=O)NC(=O)c2ccc(N3CCN(CC4=C(C56CC(C)(C5)C6)CC(C)(C)CC4)CC3)cc2)cc1S(=O)(=O)C(F)(F)F [Example 49, (R)-4-(4-((4,4-dimethyl-2-(3-methylbicyclo[1.1.1]pentan-1-yl)cyclohex-1-en-1-yl)methyl)piperazin-1-yl)-N-((4-((4-((2-hydroxyethyl)(methyl)amino)-1-(phenylthio)butan-2-yl)amino)-3-((trifluoromethyl)sulfonyl)phenyl)sulfonyl)benzamide] | – | – | 100 to 1000 | ≤ 10 | ≤ 10 |
| CCC12CC(C3=C(CN4CCN(c5ccc(C(=O)NS(=O)(=O)c6ccc(N[C@H](CCN(C)CCO)CSc7ccccc7)c(S(=O)(=O)C(F)(F)F)c6)cc5)CC4)CCC(C)(C)C3)(C1)C2 [Example 50, (R)-4-(4-((2-(3-Ethylbicyclo[1.1.1]pentan-1-yl)-4,4-dimethylcyclohex-1-en-1-yl)methyl)piperazin-1-yl)-N-((4-((4-((2-hydroxyethyl)(methyl)amino)-1-(phenylthio)butan-2-yl)amino)-3-((trifluoromethyl)sulfonyl)phenyl)sulfonyl)benzamide] | – | – | 100 to 1000 | ≤ 10 | ≤ 10 |
